Read-outs that look alike come from different tables or passages of the source.
Legend:
[1] = tested on: Hep-G2 (HCC); experiment: MTS cell viability assay, 72 h; format: cell-based, human; conditions: for IC50: Table S2, read-out: Anti-proliferation IC50 Hep-G2; for Hep-G2-selectivity (VERO/Hep-G2): ratio of VERO to Hep-G2 cytotoxicity
Source text: (§1) We then screened STR-V-53 and all the synthesized glycosylated HDACi for their effects on the viability of three cell lines: A549 (lung adenocarcinoma), Hep-G2 (HCC), and VERO (a normal kidney epithelial cell). We used SORA and STR-V-48, a previously disclosed nonglycosylated compound, as controls.[25] […] Additionally, compound STR-V-167, the peracetylated analog of STR-V-53, largely retained the Hep-G2 selectivity of STR-V-53 (Table S2). Subsequently, we evaluated the effects of STR-V-53 on cell proliferation using a panel of human HCC cell lines (Huh-7, SK-Hep-1, and Hep3B) as well as Kupffer cells (liver resident macrophages) by MTS assay. We observed that STR-V-53 is 7- to 16-fold more cytotoxic against these HCC cell lines relative to the Kupffer cells (Figure 1g). […] Based on their weak HDAC and cell proliferation inhibition activities, we de-emphasized further evaluation of the class III compounds.
(§2) 10-017-CV), supplemented with 10% fetal bovine serum (FBS) (Corning, 35-010-CV). Hep-G2 cells were cultured in phenol red-free Minimum Essential Medium (MEM) (Corning, 17-305-CV), supplemented with 10% fetal bovine serum (FBS). SK-Hep-1 in ATCC-formulated EMEM (ATCC® 30–2003™); Huh-7 in DMEM (containing 4 mM L-glutamine and 1 g/L glucose) with […]
(§3) Kupffer Cell Media (Sekisui XenoTech, LLC, Cat. #K8700). Cells were seeded into a 96-well plate (2000 counts/100uL) for 24 h prior to treatment and then treated with various drug concentrations for 72 h. All drugs were dissolved in media with DMSO concentration maintained at 1%. The effect of compounds on cell viability was measured using the MTS assay (CellTiter 96 Aqueous One Solution and CellTiter 96 Non-Radioactive Cell Proliferation Assays, Promega, Madison, WI) as described by the manufacturer. IC50s were determined using Prism GraphPad 8. […]

[2] = tested on: A549 (lung adenocarcinoma); experiment: MTS cell viability assay, 72 h; format: cell-based; conditions: Table S2, read-out: Anti-proliferation IC50 A549
Source text: as §1, §2, §3

[3] = tested on: VERO (a normal kidney epithelial cell); experiment: MTS cell viability assay, 72 h; format: cell-based; conditions: Table S2, read-out: Anti-proliferation IC50 VERO
Source text: as §1, §2, §3

[4] = molecular target: T1, HDAC8 (Homo sapiens, UniProt Q9BY41); experiment: HDAC isoform inhibition (BPS Bioscience); conditions: read-out: HDAC8 IC50; Table S1
T1 sequence (Q9BY41 1-377): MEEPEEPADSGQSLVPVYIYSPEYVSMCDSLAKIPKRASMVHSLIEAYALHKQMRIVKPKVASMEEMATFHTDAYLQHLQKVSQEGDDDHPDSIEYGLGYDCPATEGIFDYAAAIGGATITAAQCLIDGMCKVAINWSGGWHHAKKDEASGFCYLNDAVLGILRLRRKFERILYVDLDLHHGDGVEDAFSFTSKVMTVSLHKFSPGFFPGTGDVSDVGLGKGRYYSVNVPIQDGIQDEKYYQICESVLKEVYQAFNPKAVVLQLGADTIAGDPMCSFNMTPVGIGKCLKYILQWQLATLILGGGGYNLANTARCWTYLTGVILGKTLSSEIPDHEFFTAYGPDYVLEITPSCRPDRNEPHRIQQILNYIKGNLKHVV

[5] = molecular target: T2, HDAC6 (Homo sapiens, UniProt Q9UBN7); experiment: HDAC isoform inhibition (BPS Bioscience); conditions: read-out: HDAC6 IC50; Table S1
T2 sequence (Q9UBN7 1-1215): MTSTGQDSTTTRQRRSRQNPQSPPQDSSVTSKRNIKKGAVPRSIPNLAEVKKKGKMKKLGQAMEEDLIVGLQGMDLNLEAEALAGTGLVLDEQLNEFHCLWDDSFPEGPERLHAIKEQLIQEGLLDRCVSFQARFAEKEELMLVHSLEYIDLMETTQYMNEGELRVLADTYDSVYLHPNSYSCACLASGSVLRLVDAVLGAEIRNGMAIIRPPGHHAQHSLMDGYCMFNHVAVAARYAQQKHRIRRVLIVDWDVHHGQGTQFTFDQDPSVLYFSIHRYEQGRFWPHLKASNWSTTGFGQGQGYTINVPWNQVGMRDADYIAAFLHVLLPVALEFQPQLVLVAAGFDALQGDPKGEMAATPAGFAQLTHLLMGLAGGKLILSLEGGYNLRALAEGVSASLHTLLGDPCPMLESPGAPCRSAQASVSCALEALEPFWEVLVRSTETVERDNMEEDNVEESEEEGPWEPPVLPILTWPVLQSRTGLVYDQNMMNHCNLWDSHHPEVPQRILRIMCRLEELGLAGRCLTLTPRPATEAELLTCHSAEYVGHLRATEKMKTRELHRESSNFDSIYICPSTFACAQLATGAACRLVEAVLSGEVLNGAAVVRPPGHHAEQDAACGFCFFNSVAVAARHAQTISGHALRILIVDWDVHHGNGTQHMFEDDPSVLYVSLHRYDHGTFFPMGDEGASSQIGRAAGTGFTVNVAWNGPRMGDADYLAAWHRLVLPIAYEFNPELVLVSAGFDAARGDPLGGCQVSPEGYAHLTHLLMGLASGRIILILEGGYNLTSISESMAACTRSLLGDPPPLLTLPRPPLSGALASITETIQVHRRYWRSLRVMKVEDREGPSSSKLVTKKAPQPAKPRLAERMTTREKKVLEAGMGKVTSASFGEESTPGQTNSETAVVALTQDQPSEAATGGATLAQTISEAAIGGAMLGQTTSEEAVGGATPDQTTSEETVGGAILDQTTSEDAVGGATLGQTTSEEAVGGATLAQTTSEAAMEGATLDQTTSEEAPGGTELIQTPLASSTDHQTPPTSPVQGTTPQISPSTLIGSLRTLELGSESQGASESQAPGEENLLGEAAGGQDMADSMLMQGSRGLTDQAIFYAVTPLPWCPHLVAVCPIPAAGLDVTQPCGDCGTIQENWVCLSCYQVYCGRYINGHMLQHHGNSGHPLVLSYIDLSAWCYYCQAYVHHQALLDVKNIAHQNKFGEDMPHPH

[6] = molecular target: HDAC2 (Homo sapiens, UniProt Q92769); experiment: HDAC isoform inhibition (BPS Bioscience); conditions: read-out: HDAC2 IC50; Table S1
[7] = molecular target: HDAC1 (Homo sapiens, UniProt Q13547); experiment: HDAC isoform inhibition (BPS Bioscience); conditions: read-out: HDAC1 IC50; Table S1
[8] = tested on: HCC; parameters: method as in PMID 22915658; conditions: HCC patients on belinostat treatment, NCT00321594; cited from earlier work

HDAC2, sequence (Q92769 whole entry, canonical isoform): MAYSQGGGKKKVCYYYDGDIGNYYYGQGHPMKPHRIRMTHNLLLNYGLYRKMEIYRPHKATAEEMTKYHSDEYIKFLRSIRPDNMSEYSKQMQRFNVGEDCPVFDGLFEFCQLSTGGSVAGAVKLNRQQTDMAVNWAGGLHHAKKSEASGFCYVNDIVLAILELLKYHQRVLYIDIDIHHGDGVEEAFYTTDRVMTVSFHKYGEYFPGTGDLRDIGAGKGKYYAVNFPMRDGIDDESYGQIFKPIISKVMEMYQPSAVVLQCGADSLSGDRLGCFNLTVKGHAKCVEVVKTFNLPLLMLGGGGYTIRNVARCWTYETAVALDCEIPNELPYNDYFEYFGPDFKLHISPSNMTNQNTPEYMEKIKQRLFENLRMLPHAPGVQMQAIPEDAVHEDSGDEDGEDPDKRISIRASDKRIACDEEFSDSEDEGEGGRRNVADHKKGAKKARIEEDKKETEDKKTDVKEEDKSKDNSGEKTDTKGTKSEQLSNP
HDAC1, sequence (Q13547 whole entry, canonical isoform): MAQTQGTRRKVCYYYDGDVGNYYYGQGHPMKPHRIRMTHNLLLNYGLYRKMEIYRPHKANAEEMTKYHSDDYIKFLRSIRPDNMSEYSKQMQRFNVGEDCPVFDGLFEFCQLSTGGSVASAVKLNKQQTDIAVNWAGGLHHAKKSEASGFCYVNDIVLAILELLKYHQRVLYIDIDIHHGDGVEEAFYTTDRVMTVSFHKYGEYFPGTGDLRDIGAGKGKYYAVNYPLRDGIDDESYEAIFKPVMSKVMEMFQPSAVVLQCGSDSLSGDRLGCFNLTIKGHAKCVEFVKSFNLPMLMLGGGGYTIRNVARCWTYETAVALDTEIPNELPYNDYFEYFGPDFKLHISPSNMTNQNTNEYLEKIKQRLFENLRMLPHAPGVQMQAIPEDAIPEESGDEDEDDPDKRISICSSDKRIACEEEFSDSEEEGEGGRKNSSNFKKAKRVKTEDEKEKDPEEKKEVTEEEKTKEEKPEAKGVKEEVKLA

| Compound | IC50 ([1]; Homo sapiens, HepG2) [nM] | IC50 ([2]; Homo sapiens, A549) [nM] | IC50 [4] [nM] | IC50 [5] [nM] | IC50 [1] [nM] | IC50 [2] [nM] | IC50 [6] [nM] | IC50 [7] [nM] | Hep-G2-selectivity (VERO/Hep-G2) [1] | IC50 ([3]; Chlorocebus sabaeus, Vero) [nM] | IC50 [3] [nM] | Median overall survival (OS) [8] [months] | Median progression-free survival (PFS) [8] [months] |
| --- | --- | --- | --- | --- | --- | --- | --- | --- | --- | --- | --- | --- | --- |
| CNC(=O)c1cc(Oc2ccc(NC(=O)Nc3ccc(Cl)c(C(F)(F)F)c3)cc2)ccn1 [SORA, sorafenib, reference compound] | 3700 ± 400 | 18100 ± 2900 |  |  |  |  |  |  | about three times more cytotoxic | 12200 ± 100 |  |  |  |
| COc1ccc2cc(-c3cn(CCCCCCC(=O)NO)nn3)ccc2c1 [STR-V-48, N-hydroxy-7-(4-(6-methoxynaphthalen-2-yl)-1H-1,2,3-triazol-1-yl)heptanamide, reference compound] | 400 ± 40 | 1400 ± 200 |  |  |  |  |  |  |  | 200 ± 50 |  |  |  |
| O=C(/C=C/c1cccc(S(=O)(=O)Nc2ccccc2)c1)NO [belinostat] |  |  |  |  |  |  |  |  |  |  |  | 6.60 | 2.64 |

Continued, in another order:

| IC50 ([1]; Homo sapiens, HepG2) [nM] | IC50 ([2]; Homo sapiens, A549) [nM] | IC50 [4] [nM] | IC50 [5] [nM] | IC50 [1] [nM] | IC50 [2] [nM] | IC50 [6] [nM] | IC50 [7] [nM] | Compound | Hep-G2-selectivity (VERO/Hep-G2) [1] | IC50 ([3]; Chlorocebus sabaeus, Vero) [nM] | IC50 [3] [nM] | Median overall survival (OS) [8] [months] | Median progression-free survival (PFS) [8] [months] |
| --- | --- | --- | --- | --- | --- | --- | --- | --- | --- | --- | --- | --- | --- |
|  |  | 718 | 1.65 | 7400 ± 900 | 39600 ± 600 | 13.2 | 2.2 | CC(=O)OCC1OC(Oc2ccc3cc(-c4cn(CCCCCCC(=O)NO)nn4)ccc3c2)C(OC(C)=O)C(OC(C)=O)C1OC(C)=O (stereo not shown) [STR-V-177] |  |  | 19200 ± 900 |  |  |
|  |  | 311 | 2.61 | 10100 ± 1200 | > 100000 | 66.4 | 31.8 | CC(=O)OCC1OC(Oc2ccc(-c3cn(CCCCCCC(=O)NO)nn3)cc2)C(OC(C)=O)C(OC(C)=O)C1OC(C)=O (stereo not shown) [STR-V-167] |  |  | > 100000 |  |  |
|  |  | 806 | 5.22 | 9600 ± 3400 | 33700 ± 1800 | 27.5 | 10.3 | CC(=O)O[C@H]1[C@H](Oc2ccc(-c3cn(CCCCCCC(=O)NO)nn3)cc2)O[C@H](C)C[C@@H]1N(C)C [STR-V-165] | 8 fold |  | 76400 |  |  |
|  |  | 319 | 0.72 | 7500 ± 800 | 20100 ± 1100 | 10.4 | 3.28 | O=C(CCCCCCn1cc(-c2ccc3cc(O[C@@H]4O[C@H](CO)[C@@H](O)[C@H](O)[C@H]4O)ccc3c2)nn1)NO [STR-II-36] |  |  | 33600 ± 5500 |  |  |
|  |  | 271 | 1.05 | 8000 ± 900 | 64700 ± 7000 | 4.2 | 1.43 | CC(=O)OCC1OC(Oc2ccc(-c3cn(CCCCCCC(=O)NO)nn3)cc2)C(OC(C)=O)C(OC(C)=O)C1OC(C)=O (stereo not shown) [STR-V-176] | 10 fold |  | 77400 ± 5600 |  |  |
